Experiment [1] has as its target Metabotropic glutamate receptor 4 (Rattus norvegicus, UniProt P31423). Put plainly: Modulation of the Metabotropic Glutamate Receptor mGluR4: Rat PAM Potency. [Related pubchem assays (depositor defined):AID2437, AID2807]. It counts as functional.
Experiment [2] has as its target T1, Voltage-gated N-type calcium channel alpha-1B subunit/Amyloid beta A4 precursor protein-binding family A member 1 (Homo sapiens, UniProt Q00975+Q02410). Nature of the experiment: disruptors of Mint-PDZ/N-type channel peptide interaction – biochemical, HTRF, SAR follow-up (AID 2489). Type of experiment: functional.
In experiment [3] the target is T1, Voltage-gated N-type calcium channel alpha-1B subunit/Amyloid beta A4 precursor protein-binding family A member 1. Put plainly: disruptors of Mint-PDZ/N-type channel peptide interaction – biochemical, HTRF, set 2, SAR follow-up (AID 434980). Type of experiment: functional.
Experiment [4] addresses Lysosomal acid glucosylceramidase (Homo sapiens, UniProt P04062). Nature of the experiment: Dose response cell-based high throughput screening assay to identify enhancers of beta-glucosidase activity. [Related pubchem assays: 784 ]. It counts as functional.
The target of experiment [5] is T2, Heat shock factor protein 1 (Mus musculus, UniProt P38532).
T2 sequence (P38532 whole entry): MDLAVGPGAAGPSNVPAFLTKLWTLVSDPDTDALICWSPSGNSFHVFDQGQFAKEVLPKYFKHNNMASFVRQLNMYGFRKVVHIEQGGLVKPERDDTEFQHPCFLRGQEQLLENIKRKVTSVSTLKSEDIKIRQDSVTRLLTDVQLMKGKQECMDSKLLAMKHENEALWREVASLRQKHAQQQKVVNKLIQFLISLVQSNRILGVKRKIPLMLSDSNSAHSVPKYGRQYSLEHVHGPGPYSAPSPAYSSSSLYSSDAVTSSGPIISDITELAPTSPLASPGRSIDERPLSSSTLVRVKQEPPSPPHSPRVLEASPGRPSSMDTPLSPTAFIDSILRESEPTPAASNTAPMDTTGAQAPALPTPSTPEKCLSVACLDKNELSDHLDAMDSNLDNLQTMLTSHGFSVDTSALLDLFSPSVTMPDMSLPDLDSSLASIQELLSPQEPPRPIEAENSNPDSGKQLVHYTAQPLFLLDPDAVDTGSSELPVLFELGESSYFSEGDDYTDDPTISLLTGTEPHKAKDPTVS
Put plainly: decrease of HSF1-responsive luciferase luminescence – cell-based, NIH3T3, dose retest, confirmation (AID 2382).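 Note: NIH3T3 fibroblasts with HSF1-driven luciferase reporter stressed by proteasome inhibitor MG132; luminescence from HSF1-driven luciferase expression after 8 hours of MG132 stress.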 It counts as functional.

Experiment [6] in a line: antiviral protection against BTV-induced cell death – arbovirus, BSR cells, confirmation (AID 1250).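 Note: protection from viral cytopathic effect measured as cell viability by ATP luminescence.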 It counts as functional.
In experiment [7] the target is Cytochrome P450 2C19 (Homo sapiens, UniProt P33261). Put plainly: Cytochrome panel assay with activity outcomes. Panel member name: p450-cyp2c19 Compounds with AC50 equal or less than 10 uM are considered active. The following applies: read-out: AC50. It counts as functional.
Experiment [8] addresses Cytochrome P450 2C9 (Homo sapiens, UniProt P11712).
Experiment [9] deals with T3, Kappa-type opioid receptor (Homo sapiens, UniProt P41145). Type of experiment: functional.
Experiment [10] deals with Mu-type opioid receptor (Homo sapiens, UniProt P35372). Put plainly: HTS Image-Based Screen for Agonists of the MOR Receptor. [Related pubchem assays (depositor defined):AID1777, AID1785, AID1786, AID2133]. It counts as functional.
The target of experiment [11] is T4, Delta-type opioid receptor (Homo sapiens, UniProt P41143). Nature of the experiment: HTS Image-Based Screen for Agonists of the DOR Receptor. [Related pubchem assays (depositor defined):AID1777, AID1786, AID2133]. It counts as functional.
Experiment [12] concerns the target T3, Kappa-type opioid receptor. It counts as functional. The source holds these as a separate data set.
For experiment [13], the target named is T4, Delta-type opioid receptor. Nature of the experiment: HTS Image-Based Screen for Antagonists of the DOR Receptor. [Related pubchem assays (depositor defined):AID1777, AID1785, AID1786, AID2133]. It counts as functional.
The nature of experiment [14]: cells.
Experiment [15] in a line: viability of uninfected HEp-2 cells – cell-based, HTS, cytotoxicity control for RSV inhibitor project, dose response (AID 2410). It counts as functional. Particulars: human respiratory syncytial virus.
Experiment [16] can be described thus: microbe, parasite or virus in culture. It counts as functional. The following applies: Mycobacterium tuberculosis.

The source made the active and inactive calls.

T1 sequence (Q00975 whole entry): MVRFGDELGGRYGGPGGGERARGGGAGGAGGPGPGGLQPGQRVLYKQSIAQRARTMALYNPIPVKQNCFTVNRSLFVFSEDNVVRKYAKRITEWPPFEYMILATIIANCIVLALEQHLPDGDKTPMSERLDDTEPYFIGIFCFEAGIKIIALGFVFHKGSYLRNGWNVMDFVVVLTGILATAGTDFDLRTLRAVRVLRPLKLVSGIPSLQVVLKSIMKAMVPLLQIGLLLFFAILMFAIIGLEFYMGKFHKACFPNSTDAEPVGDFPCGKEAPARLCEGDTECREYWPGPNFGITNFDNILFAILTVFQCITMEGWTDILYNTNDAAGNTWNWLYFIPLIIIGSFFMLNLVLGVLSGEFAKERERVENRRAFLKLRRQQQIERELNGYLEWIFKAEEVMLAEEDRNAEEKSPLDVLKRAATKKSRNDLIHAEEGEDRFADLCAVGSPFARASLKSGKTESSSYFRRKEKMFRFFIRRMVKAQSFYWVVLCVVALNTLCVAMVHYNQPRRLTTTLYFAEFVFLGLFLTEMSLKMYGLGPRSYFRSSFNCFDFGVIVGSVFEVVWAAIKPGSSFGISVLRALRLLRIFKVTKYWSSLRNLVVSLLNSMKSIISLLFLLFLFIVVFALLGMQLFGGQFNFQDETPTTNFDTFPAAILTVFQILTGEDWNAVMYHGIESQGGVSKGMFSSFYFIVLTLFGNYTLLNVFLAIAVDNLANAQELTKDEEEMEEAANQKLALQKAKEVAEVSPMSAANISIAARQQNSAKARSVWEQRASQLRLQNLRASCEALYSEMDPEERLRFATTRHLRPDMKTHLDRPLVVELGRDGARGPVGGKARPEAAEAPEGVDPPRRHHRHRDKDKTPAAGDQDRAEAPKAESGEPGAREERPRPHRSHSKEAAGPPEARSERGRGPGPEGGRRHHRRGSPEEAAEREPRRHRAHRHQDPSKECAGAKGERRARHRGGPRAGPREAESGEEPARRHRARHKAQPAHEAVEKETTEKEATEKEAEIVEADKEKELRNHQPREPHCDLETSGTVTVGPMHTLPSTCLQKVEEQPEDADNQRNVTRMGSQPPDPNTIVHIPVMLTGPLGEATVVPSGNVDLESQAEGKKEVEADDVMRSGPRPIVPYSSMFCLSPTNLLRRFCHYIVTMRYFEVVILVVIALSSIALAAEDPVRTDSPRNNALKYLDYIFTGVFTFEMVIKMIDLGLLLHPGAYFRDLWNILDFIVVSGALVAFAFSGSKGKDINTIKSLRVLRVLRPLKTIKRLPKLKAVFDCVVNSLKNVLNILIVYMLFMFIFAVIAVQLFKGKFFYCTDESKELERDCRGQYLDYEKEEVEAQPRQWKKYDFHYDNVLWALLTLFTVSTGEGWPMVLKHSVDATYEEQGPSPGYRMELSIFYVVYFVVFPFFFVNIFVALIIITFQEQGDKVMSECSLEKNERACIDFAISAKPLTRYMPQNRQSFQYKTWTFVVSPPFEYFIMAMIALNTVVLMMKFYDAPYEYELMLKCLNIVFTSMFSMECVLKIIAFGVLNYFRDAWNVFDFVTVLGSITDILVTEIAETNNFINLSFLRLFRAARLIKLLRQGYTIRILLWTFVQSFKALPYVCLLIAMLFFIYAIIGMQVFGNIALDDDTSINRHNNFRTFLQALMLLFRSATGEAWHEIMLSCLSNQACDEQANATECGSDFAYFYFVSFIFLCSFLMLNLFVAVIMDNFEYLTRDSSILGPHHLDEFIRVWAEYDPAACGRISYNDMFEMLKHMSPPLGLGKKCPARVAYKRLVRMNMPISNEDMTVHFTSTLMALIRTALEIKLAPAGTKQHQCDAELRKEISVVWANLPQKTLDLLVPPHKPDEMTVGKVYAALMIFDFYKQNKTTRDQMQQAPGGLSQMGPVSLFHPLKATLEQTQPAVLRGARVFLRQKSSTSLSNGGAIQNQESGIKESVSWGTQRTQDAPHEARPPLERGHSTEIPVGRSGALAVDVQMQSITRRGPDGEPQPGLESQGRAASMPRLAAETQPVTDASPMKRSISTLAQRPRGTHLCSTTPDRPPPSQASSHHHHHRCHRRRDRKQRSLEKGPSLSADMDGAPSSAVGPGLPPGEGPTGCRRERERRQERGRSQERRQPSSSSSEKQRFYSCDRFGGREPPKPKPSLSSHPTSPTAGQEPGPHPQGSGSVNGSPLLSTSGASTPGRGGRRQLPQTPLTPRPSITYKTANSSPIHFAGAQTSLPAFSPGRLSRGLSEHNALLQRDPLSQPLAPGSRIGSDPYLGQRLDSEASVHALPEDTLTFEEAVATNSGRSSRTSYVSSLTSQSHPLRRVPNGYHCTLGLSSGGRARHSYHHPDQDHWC
T1 sequence (Q02410 whole entry): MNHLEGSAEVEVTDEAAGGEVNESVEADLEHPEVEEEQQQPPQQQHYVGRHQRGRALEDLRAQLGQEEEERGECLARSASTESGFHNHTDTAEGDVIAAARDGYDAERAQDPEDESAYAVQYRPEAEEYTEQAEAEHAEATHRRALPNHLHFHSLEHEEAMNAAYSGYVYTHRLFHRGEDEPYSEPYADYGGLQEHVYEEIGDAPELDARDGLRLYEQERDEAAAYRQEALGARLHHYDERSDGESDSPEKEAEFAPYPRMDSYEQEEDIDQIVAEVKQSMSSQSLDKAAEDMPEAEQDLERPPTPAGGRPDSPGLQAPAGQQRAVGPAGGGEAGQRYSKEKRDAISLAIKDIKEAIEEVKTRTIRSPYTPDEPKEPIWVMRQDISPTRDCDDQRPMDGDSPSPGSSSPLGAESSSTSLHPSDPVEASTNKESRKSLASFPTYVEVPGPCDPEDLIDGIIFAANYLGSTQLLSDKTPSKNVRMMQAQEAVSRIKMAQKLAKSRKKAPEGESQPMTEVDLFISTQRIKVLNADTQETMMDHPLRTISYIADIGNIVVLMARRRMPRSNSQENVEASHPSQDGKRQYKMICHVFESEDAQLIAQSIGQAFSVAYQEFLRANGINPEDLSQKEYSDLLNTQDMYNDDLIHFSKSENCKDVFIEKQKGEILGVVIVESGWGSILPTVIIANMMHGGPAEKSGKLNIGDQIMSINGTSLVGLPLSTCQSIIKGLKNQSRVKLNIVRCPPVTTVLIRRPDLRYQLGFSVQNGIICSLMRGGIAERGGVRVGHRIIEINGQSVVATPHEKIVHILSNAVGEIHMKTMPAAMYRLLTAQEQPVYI
T3 sequence (P41145 whole entry): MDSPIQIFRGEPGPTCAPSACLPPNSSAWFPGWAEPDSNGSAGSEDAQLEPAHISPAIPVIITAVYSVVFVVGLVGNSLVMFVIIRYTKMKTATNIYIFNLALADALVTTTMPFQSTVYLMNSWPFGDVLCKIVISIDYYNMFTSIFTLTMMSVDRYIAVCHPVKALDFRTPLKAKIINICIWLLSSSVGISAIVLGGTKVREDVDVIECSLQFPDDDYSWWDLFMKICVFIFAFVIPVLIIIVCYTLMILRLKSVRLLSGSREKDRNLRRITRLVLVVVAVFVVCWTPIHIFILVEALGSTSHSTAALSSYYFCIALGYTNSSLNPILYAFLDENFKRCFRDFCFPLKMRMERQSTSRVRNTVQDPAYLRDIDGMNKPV
T4 sequence (P41143 whole entry): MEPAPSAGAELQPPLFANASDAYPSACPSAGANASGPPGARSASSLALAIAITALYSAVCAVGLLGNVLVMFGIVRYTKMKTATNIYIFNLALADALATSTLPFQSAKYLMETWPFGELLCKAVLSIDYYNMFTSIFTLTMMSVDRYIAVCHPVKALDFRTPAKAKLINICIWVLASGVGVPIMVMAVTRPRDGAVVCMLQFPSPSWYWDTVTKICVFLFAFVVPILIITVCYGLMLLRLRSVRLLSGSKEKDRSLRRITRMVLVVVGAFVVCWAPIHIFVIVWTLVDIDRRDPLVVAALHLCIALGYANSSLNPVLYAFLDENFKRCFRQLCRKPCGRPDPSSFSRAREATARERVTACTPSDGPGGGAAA
Chain of Cytochrome P450 2C9 (P11712 whole entry): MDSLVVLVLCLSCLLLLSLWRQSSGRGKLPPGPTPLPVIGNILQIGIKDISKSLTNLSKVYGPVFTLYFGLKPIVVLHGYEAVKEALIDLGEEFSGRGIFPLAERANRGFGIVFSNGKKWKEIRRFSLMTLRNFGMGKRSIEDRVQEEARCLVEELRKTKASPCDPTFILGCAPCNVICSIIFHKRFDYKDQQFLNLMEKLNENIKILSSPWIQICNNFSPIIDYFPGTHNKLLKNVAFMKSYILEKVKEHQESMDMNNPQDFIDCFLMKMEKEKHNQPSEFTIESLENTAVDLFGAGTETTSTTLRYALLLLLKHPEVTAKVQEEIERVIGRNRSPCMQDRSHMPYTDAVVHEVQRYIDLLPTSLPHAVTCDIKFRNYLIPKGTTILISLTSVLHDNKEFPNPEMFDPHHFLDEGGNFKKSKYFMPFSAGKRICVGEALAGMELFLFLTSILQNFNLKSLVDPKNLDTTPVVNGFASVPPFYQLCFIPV
Chain of Cytochrome P450 2C19 (P33261 whole entry): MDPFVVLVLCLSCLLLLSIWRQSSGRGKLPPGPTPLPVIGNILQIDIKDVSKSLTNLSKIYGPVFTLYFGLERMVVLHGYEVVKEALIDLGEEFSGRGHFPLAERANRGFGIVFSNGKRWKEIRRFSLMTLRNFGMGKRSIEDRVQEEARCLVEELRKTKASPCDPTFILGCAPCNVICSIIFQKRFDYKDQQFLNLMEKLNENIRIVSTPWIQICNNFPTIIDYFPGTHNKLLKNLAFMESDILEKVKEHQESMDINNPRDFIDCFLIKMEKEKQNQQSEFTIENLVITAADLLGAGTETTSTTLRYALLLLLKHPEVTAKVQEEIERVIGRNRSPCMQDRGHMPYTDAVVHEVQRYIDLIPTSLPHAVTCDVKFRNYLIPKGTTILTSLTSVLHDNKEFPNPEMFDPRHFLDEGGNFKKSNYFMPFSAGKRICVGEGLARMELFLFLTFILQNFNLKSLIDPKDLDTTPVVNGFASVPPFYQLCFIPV

For the compound `COc1cc(NC(=O)c2ccccn2)ccc1NC(=O)c1ccccc1Cl`, the EC50 in [1] was 0.11 µM (active).

Take `CCCOc1ccc(N2C(=O)C3C(C2=O)C2(C)C=CC3(C)O2)cc1` (stereo unspecified): the IC50 is 9.66 µM (active) in experiment [2] and > 56.8 µM (inactive) in [3].

Regarding `COC(=O)c1cn(-c2ccccc2)nc1-c1cccnc1`, the EC50 in [4] is listed as > 50 µM (not active).

For the compound `COc1ccc2ccccc2c1/C=N/N1C(=O)CSC1=S`, in [5], the EC50 is > 195 µM (not active). In addition, the IC50 in experiment [6] was 21.1 µM (active).

Consider `CCC(C)(C(=O)NC1CCCC1)N(Cc1ccco1)C(=O)c1ccccn1` (stereo unspecified), for which the AC50 was 7.94 µM (inconclusive) in experiment [7] and 12.6 µM (inconclusive) in [8]. Also, the EC50 in experiment [9] is 11.4 µM; in experiment [10], > 32 µM (inactive); in [11], > 32 µM (inactive); in experiment [12], 9.05 µM. Also, the IC50 in experiment [13] was > 32 µM (inactive).

Take `COc1ccc(C(C[N+](=O)[O-])c2c(-c3ccccc3)cc3ccccn23)c(OC)c1` (stereo unspecified): in experiment [14], the half-inhibitory concentration (IC50) is 36.3 µM (active). In addition, the CC50 was > 50 µM (active) in experiment [15] and 20.3 µM (active) in experiment [16].

The values are drawn from ChEMBL document CHEMBL1201862, “PubChem BioAssay data set” (2004).
